Measured values taken from PubChem BioAssay AID2060905 (Molecular Pharmacology Branch, DTP, NCI, 2025).
pIC50: −log10 of the molar value.

Test system: 282377-053-R-J1-PDC complex spheroid viability
Experiment: Anticancer human tumor 282377-053-R-J1-PDC patient-derived colon adenocarcinoma cell line growth inhibition [RAS]
Settings: for pIC50: curve of first compound; for viability, T/C: stronger effect = lower value
Procedure, shortened: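 Multi-cell-type spheroids: tumor cells plus HUVEC endothelial cells and mesenchymal stem cells. RAS-pathway inhibitors were combined with targeted agents, each dosed in half-log steps down from clinical Cmax, or from 10 microM when Cmax was unknown.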
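Note: spheroids exposed to agents for seven days before readout.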
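Throughout, for viability, T/C: luminescence viability as percent of DMSO vehicle control wells.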

Nc1ccn(C2OC(CO)C(O)C2(F)F)c(=O)n1 (centres undefined) + C#Cc1c(F)ccc2cc(O)cc(-c3ncc4c(N5CC6CCC(C5)N6)nc(OCC56CCCN5CC(F)C6)nc4c3F)c12 was tested, and the pIC50 (second compound 0.0316 µM) was 6.20, the pIC50 (second compound 0.1 µM) was 6.60 and the pIC50 (second compound 0.316 µM) was 6.36. For the same compound, the pIC50 (second compound 1 µM) was 6.59, the pIC50 (second compound 3.16 µM) was 6.26 and the pIC50 (second compound 10 µM) was < 6.00. It also gave a viability, T/C (second compound 0.0316 µM, first compound 0.00316 µM) of 133%, a viability, T/C (second compound 0.0316 µM, first compound 0.01 µM) of 117% and a viability, T/C (second compound 0.0316 µM, first compound 0.0316 µM) of 85.4%. For the same compound, the viability, T/C (second compound 0.0316 µM, first compound 0.1 µM) was 79.5%, the viability, T/C (second compound 0.0316 µM, first compound 0.316 µM) was 59% and the viability, T/C (second compound 0.0316 µM, first compound 1 µM) was 43.1%. The viability, T/C (second compound 0.1 µM, first compound 0.00316 µM) was 96%, the viability, T/C (second compound 0.1 µM, first compound 0.01 µM) was 89.7% and the viability, T/C (second compound 0.1 µM, first compound 0.0316 µM) was 101%. The viability, T/C (second compound 0.1 µM, first compound 0.1 µM) was 76.8%, the viability, T/C (second compound 0.1 µM, first compound 0.316 µM) was 44.6% and the viability, T/C (second compound 0.1 µM, first compound 1 µM) was 37.9%. The viability, T/C (second compound 0.316 µM, first compound 0.00316 µM) was 115%, the viability, T/C (second compound 0.316 µM, first compound 0.01 µM) was 92.5% and the viability, T/C (second compound 0.316 µM, first compound 0.0316 µM) was 99.4%. It also gave a viability, T/C (second compound 0.316 µM, first compound 0.1 µM) of 77%, a viability, T/C (second compound 0.316 µM, first compound 0.316 µM) of 51.1% and a viability, T/C (second compound 0.316 µM, first compound 1 µM) of 42.3%. It also gave a viability, T/C (second compound 1 µM, first compound 0.00316 µM) of 100%, a viability, T/C (second compound 1 µM, first compound 0.01 µM) of 101% and a viability, T/C (second compound 1 µM, first compound 0.0316 µM) of 107%. The viability, T/C (second compound 1 µM, first compound 0.1 µM) was 69.6%, the viability, T/C (second compound 1 µM, first compound 0.316 µM) was 51.3% and the viability, T/C (second compound 1 µM, first compound 1 µM) was 40.2%. It also gave a viability, T/C (second compound 3.16 µM, first compound 0.00316 µM) of 89.8%, a viability, T/C (second compound 3.16 µM, first compound 0.01 µM) of 86% and a viability, T/C (second compound 3.16 µM, first compound 0.0316 µM) of 89.1%. The viability, T/C (second compound 3.16 µM, first compound 0.1 µM) was 73.1%, the viability, T/C (second compound 3.16 µM, first compound 0.316 µM) was 56.6% and the viability, T/C (second compound 3.16 µM, first compound 1 µM) was 43.3%. It also gave a viability, T/C (second compound 10 µM, first compound 0.00316 µM) of 99.2%, a viability, T/C (second compound 10 µM, first compound 0.01 µM) of 99.3% and a viability, T/C (second compound 10 µM, first compound 0.0316 µM) of 92.8%. It also gave a viability, T/C (second compound 10 µM, first compound 0.1 µM) of 69.8%, a viability, T/C (second compound 10 µM, first compound 0.316 µM) of 62.5% and a viability, T/C (second compound 10 µM, first compound 1 µM) of 54.5%.
For CC1(C)CCC(Nc2ncc(C(F)(F)F)c(-c3c[nH]c4c(P(C)(C)=O)c(C#N)ccc34)n2)CN1 (centres undefined) + C=CC(=O)N1CCN(c2nc(OCC3CCCN3C)nc3c(F)c(-c4nc(N)cc(C)c4C(F)(F)F)c(Cl)cc23)C(C)C1, the pIC50 (second compound 0.00316 µM) was < 6.52, the pIC50 (second compound 0.01 µM) was < 6.52 and the pIC50 (second compound 0.0316 µM) was < 6.52. For the same compound, the pIC50 (second compound 0.1 µM) was < 6.52, the pIC50 (second compound 0.316 µM) was < 6.52 and the pIC50 (second compound 1 µM) was < 6.52. For the same compound, the viability, T/C (second compound 0.00316 µM, first compound 0.000949 µM) was 114%, the viability, T/C (second compound 0.00316 µM, first compound 0.003 µM) was 120% and the viability, T/C (second compound 0.00316 µM, first compound 0.00949 µM) was 79.9%. For the same compound, the viability, T/C (second compound 0.00316 µM, first compound 0.03 µM) was 51.3%, the viability, T/C (second compound 0.00316 µM, first compound 0.0949 µM) was 61.1% and the viability, T/C (second compound 0.00316 µM, first compound 0.3 µM) was 55.6%. The viability, T/C (second compound 0.01 µM, first compound 0.000949 µM) was 123%, the viability, T/C (second compound 0.01 µM, first compound 0.003 µM) was 88.7% and the viability, T/C (second compound 0.01 µM, first compound 0.00949 µM) was 85.1%. The viability, T/C (second compound 0.01 µM, first compound 0.03 µM) was 64.5%, the viability, T/C (second compound 0.01 µM, first compound 0.0949 µM) was 58.8% and the viability, T/C (second compound 0.01 µM, first compound 0.3 µM) was 56.1%. For the same compound, the viability, T/C (second compound 0.0316 µM, first compound 0.000949 µM) was 91.7%, the viability, T/C (second compound 0.0316 µM, first compound 0.003 µM) was 90.8% and the viability, T/C (second compound 0.0316 µM, first compound 0.00949 µM) was 72.3%. The viability, T/C (second compound 0.0316 µM, first compound 0.03 µM) was 59.6%, the viability, T/C (second compound 0.0316 µM, first compound 0.0949 µM) was 64.8% and the viability, T/C (second compound 0.0316 µM, first compound 0.3 µM) was 56.1%. It also gave a viability, T/C (second compound 0.1 µM, first compound 0.000949 µM) of 105%, a viability, T/C (second compound 0.1 µM, first compound 0.003 µM) of 101% and a viability, T/C (second compound 0.1 µM, first compound 0.00949 µM) of 91.3%. It also gave a viability, T/C (second compound 0.1 µM, first compound 0.03 µM) of 66.3%, a viability, T/C (second compound 0.1 µM, first compound 0.0949 µM) of 73.1% and a viability, T/C (second compound 0.1 µM, first compound 0.3 µM) of 61.8%. It also gave a viability, T/C (second compound 0.316 µM, first compound 0.000949 µM) of 90.2%, a viability, T/C (second compound 0.316 µM, first compound 0.003 µM) of 102% and a viability, T/C (second compound 0.316 µM, first compound 0.00949 µM) of 87.9%. The viability, T/C (second compound 0.316 µM, first compound 0.03 µM) was 65.1%, the viability, T/C (second compound 0.316 µM, first compound 0.0949 µM) was 58.5% and the viability, T/C (second compound 0.316 µM, first compound 0.3 µM) was 67.1%. It also gave a viability, T/C (second compound 1 µM, first compound 0.000949 µM) of 92.9%, a viability, T/C (second compound 1 µM, first compound 0.003 µM) of 112% and a viability, T/C (second compound 1 µM, first compound 0.00949 µM) of 86.8%. For the same compound, the viability, T/C (second compound 1 µM, first compound 0.03 µM) was 61.6%, the viability, T/C (second compound 1 µM, first compound 0.0949 µM) was 67% and the viability, T/C (second compound 1 µM, first compound 0.3 µM) was 71.8%.
